Here are results for 63 compounds from patent US20100022521A1, “COMPOUNDS” (Hansa Metallwerke AG, priority 2005, published 2010).

In the test the target is mGluR5 (UniProt P31424). Description: MGluR5 receptor binding test ([3H]-M-MPEP displacement). Set-up: species or system rat. The conditions noted are these: radioligand [3H]-M-MPEP (2 nM); species not given; read-out: mGlu5 Ki. The procedure:
MGluR5 Receptor Binding Tests
Rat cerebro-cortical membrane preparation was used to determine the binding characteristics of reference compounds and novel compounds to the rat mGluR5. The A18 cell line expressing hmGluR5a (purchased from Euroscreen) was used to determine binding characteristics of the chemical compounds to the human mGluR5a receptor. As radioligand [3H]-M-MPEP (2 nM) was used. The nonspecific binding was determined in the presence of 10 μM M-MPEP.
As for `O=S(=O)(c1ccccc1Cl)c1sc2ncccc2c1-c1ccc(Cl)cc1` [Compound 6], the Ki (usually the equilibrium dissociation constant of an inhibitor or competing ligand from its target) lay in the range of 500 to 1500 nM.
The result for `CC1CCN(S(=O)(=O)c2sc3ncccc3c2-c2ccc(Cl)cc2)CC1` [Compound 20, 3-(4-Chlorophenyl)-2-(4-methyl-piperidine-1-sulfonyl)-thieno[2,3-b]pyridine] reads 500 to 1500 nM; that for `Cc1cccc(S(=O)(=O)c2sc3ncccc3c2-c2ccc(Cl)cc2)c1` [Compound 22], less than 500 nM.
The result for `Cc1ccc(S(=O)(=O)c2sc3ncccc3c2-c2ccc(F)cc2)cc1Cl` [Compound 23] reads less than 500 nM.
Next, `Cc1ccc(S(=O)(=O)c2sc3ncccc3c2-c2ccc(F)cc2)cc1C` [Compound 24]: less than 500 nM.
For the compound `O=S(=O)(c1ccc(Br)cc1)c1sc2ncccc2c1-c1ccc(Cl)cc1` [Compound 25], the Ki was less than 500 nM.
As for `Cc1ccc(-c2c(S(=O)(=O)c3cccc(C)c3)sc3ncccc23)cc1` [Compound 26], the Ki is less than 500 nM.
Next, `Cc1ccc(-c2c(S(=O)(=O)c3ccc(C)cc3)sc3ncccc23)cc1` [Compound 27]: less than 500 nM; `N#Cc1cccc(S(=O)(=O)c2sc3ncccc3c2-c2ccc(F)cc2)c1` [Compound 29]: less than 500 nM; `N#Cc1cc(F)cc(S(=O)(=O)c2sc3ncccc3c2-c2ccc(F)cc2)c1` [Compound 30]: less than 500 nM.
Take `O=S(=O)(c1cccc(F)c1)c1sc2ncccc2c1-c1ccc(Cl)cc1` [Compound 31]: the Ki is less than 500 nM.
The result for `CC1CCCN(c2c(S(=O)(=O)c3cccc(C#N)c3)sc3ncccc23)C1` (stereo not drawn) [Compound 32] reads less than 500 nM; that for `O=S(=O)(c1cc(F)cc(C(F)(F)F)c1)c1sc2ncccc2c1-c1ccc(Cl)cc1` [Compound 34], less than 500 nM; that for `Cc1ccc(-c2c(S(=O)(=O)c3cccc(Cl)c3)sc3ncccc23)cc1` [Compound 37], less than 500 nM.
Consider `Cc1ccc(S(=O)(=O)c2sc3ncccc3c2-c2ccc(Cl)cc2)cc1F` [Compound 39], for which the Ki was less than 500 nM.
Next, `O=S(=O)(c1ccc(Cl)cc1)c1sc2ncccc2c1-c1ccc(Cl)c(Cl)c1` [Compound 41]: less than 500 nM; `N#Cc1ccc(S(=O)(=O)c2sc3ncccc3c2-c2cccc(Cl)c2)cc1` [Compound 42]: less than 500 nM.
The result for `O=S(=O)(c1ccc(Cl)cc1)c1sc2nc(Cl)ccc2c1-c1ccc(Cl)cc1` [Compound 43, 6-chloro-2-(4-chloro-benzenesulfonyl)-3-(4-chloro-phenyl)-thieno[2,3-b]pyridine] reads less than 500 nM.
Turning to `Cc1cc(C)cc(S(=O)(=O)c2sc3ncccc3c2-c2ccc(Cl)cc2)c1` [Compound 44], the Ki was less than 500 nM.
The result for `O=S(=O)(c1ccc(Br)s1)c1sc2ncccc2c1-c1ccc(Cl)cc1` [Compound 45] reads less than 500 nM; that for `O=S(=O)(c1ccc(Cl)cc1)c1sc2ncccc2c1N1CCOCC1` [Compound 46], less than 500 nM.
The result for `CN(C)c1ccc2c(-c3ccc(Cl)cc3)c(S(=O)(=O)c3ccc(Cl)cc3)sc2n1` [Compound 47, 2-(4-Chloro-benzenesulfonyl)-3-(4-chloro-phenyl)-6-dimethylamino-thieno[2,3-b]pyridine] reads 500 to 1500 nM.
The result for `Nc1ccc2c(-c3ccc(Cl)cc3)c(S(=O)(=O)c3ccc(Cl)cc3)sc2n1` [Compound 49, 6-Amino-2-(4-chloro-benzenesulfonyl)-3-(4-chloro-phenyl)-thieno[2,3-b]pyridine] reads less than 500 nM; that for `Cc1cccc(S(=O)(=O)c2sc3nc(Cl)ccc3c2-c2ccc(Cl)cc2)c1` [Compound 50], less than 500 nM; that for `N#Cc1cccc(S(=O)(=O)c2sc3nc(Cl)ccc3c2-c2ccc(Cl)cc2)c1` [Compound 51], greater than 1500 nM.
With `O=S(=O)(c1cccc(Cl)c1)c1sc2ncccc2c1-c1ccc(F)cc1` [Compound 54], the Ki is less than 500 nM.
As for `Cc1ccc(S(=O)(=O)c2sc3ncccc3c2-c2ccc(F)cc2)cc1` [Compound 55], the Ki is less than 500 nM.
As to `Cc1cc(C)c(S(=O)(=O)c2sc3ncccc3c2-c2ccc(Cl)cc2)c(C)c1` [Compound 56], the Ki is greater than 1500 nM.
Next, `O=S(=O)(c1ccc(Cl)cc1)c1sc2nccc(Cl)c2c1-c1ccc(Cl)cc1` [Compound 57, 4-Chloro-2-(4-chloro-benzenesulfonyl)-3-(4-chloro-phenyl)-thieno[2,3-b]pyridine]: less than 500 nM; `O=S(=O)(c1ccc(Cl)cc1)c1sc2nc(F)ccc2c1-c1ccc(Cl)cc1` [Compound 58]: less than 500 nM; `O=S(=O)(c1ccc(Cl)cc1)c1sc2ncccc2c1-c1cccc(Cl)c1` [Compound 60]: less than 500 nM.
Next, `Cc1cccc(S(=O)(=O)c2sc3ncccc3c2-c2ccc(F)cc2)c1` [Compound 61]: less than 500 nM; `Cc1ccc(S(=O)(=O)c2sc3ncccc3c2-c2ccc(Cl)cc2)cc1C` [Compound 62]: less than 500 nM.
Next, `Cc1ccc(S(=O)(=O)c2sc3ncccc3c2-c2ccc(Cl)cc2)cc1Cl` [Compound 63]: less than 500 nM; `COc1ccc2c(-c3ccc(Cl)cc3)c(S(=O)(=O)c3cccc(C#N)c3)sc2n1` [Compound 64, 2-(3-Cyano-benzenesulfonyl)-3-(4-chloro-phenyl)-6-methoxy-thieno[2,3-b]pyridine]: less than 500 nM; `N#Cc1cccc(S(=O)(=O)c2sc3nc(F)ccc3c2-c2ccc(Cl)cc2)c1` [Compound 65]: less than 500 nM.
As for `N#Cc1cccc(-c2c(S(=O)(=O)c3cccc(C#N)c3)sc3ncccc23)c1` [Compound 66], the Ki was less than 500 nM.
The result for `O=S(=O)(c1ccc(C(F)(F)F)cc1)c1sc2ncccc2c1-c1ccc(Cl)cc1` [Compound 68] reads less than 500 nM; that for `N#Cc1ccc(-c2c(S(=O)(=O)c3cccc(C#N)c3)sc3ncccc23)cc1` [Compound 69], less than 500 nM.
Consider `COc1cccc(S(=O)(=O)c2sc3ncccc3c2-c2ccc(Cl)cc2)c1` [Compound 70], for which the Ki is less than 500 nM.
With `CN(C)c1ccc(S(=O)(=O)c2sc3ncccc3c2-c2ccc(Cl)cc2)cc1` [Compound 71], the Ki was less than 500 nM.
As to `O=[N+]([O-])c1cnc2sc(S(=O)(=O)c3ccc(Cl)cc3)c(-c3ccc(Cl)cc3)c2c1` [Compound 72, 2-(4-chloro-benzenesulfonyl)-3-(4-chloro-phenyl)-5-nitro-thieno[2,3-b]pyridine], the Ki lay within 500 to 1500 nM.
For the compound `N#Cc1cccc(S(=O)(=O)c2sc3ncccc3c2-c2ccncc2)c1` [Compound 73], the Ki is less than 500 nM.
The result for `N#Cc1cccc(S(=O)(=O)c2sc3nc(Cl)ccc3c2-c2ccc(F)cc2)c1` [Compound 74] reads less than 500 nM.
Regarding `O=S(=O)(c1cccc(F)c1)c1sc2nc(Cl)ccc2c1-c1ccc(Cl)cc1` [Compound 76], the Ki fell in the range of 500 to 1500 nM.
The result for `O=S(=O)(c1cccc(F)c1)c1sc2nc(F)ccc2c1-c1ccc(Cl)cc1` [Compound 77] reads less than 500 nM.
`Cc1ccc(S(=O)(=O)c2sc3nc(Cl)ccc3c2-c2ccc(Cl)cc2)cc1F` [Compound 81]: the Ki was less than 500 nM.
Next, `COc1ccc(-c2c(S(=O)(=O)c3cccc(C#N)c3)sc3ncccc23)cc1` [Compound 84]: less than 500 nM; `CS(=O)(=O)Nc1cnc2sc(S(=O)(=O)c3ccc(Cl)cc3)c(-c3ccc(Cl)cc3)c2c1` [Compound 85, N-[2-(4-Chloro-benzenesulfonyl)-3-(4-chloro-phenyl)-thieno[2,3-b]pyridin-5-yl]-methanesulfonamide]: less than 500 nM; `N#Cc1cc(F)cc(S(=O)(=O)c2sc3nc(Cl)ccc3c2-c2ccc(Cl)cc2)c1` [Compound 86, 2-(3-Cyano-5-fluoro-benzenesulfonyl)-3-(4-chloro-phenyl)-6-chloro-thieno[2,3-b]pyridine]: less than 500 nM.
Next, `O=S(=O)(c1cc(F)cc(F)c1)c1sc2ncccc2c1-c1ccc(Cl)cc1` [Compound 87]: less than 500 nM; `CC(C)c1ccc(S(=O)(=O)c2sc3ncccc3c2-c2ccc(Cl)cc2)cc1` [Compound 88]: less than 500 nM; `O=S(=O)(c1ccc(Cl)cc1)c1sc2ncccc2c1N1CCC(C(F)(F)F)CC1` [Compound 92]: less than 500 nM.
Next, `N#CC1CCN(c2c(S(=O)(=O)c3ccc(Cl)cc3)sc3ncccc23)CC1` [Compound 93]: 500 to 1500 nM; `CC1CCN(c2c(S(=O)(=O)c3ccc(Cl)cc3)sc3ncccc23)CC1` [Compound 94]: less than 500 nM; `CC1CCN(c2cc(C#N)cc(S(=O)(=O)c3sc4ncccc4c3N3CCC(C)CC3)c2)CC1` [Compound 95]: 500 to 1500 nM.
As to `CC1CCN(c2c(S(=O)(=O)c3cc(F)cc(C#N)c3)sc3ncccc23)CC1` [Compound 96], the Ki is less than 500 nM.
Next, `O=S(=O)(c1ccc(Cl)cc1)c1sc2ncc(Cl)cc2c1-c1ccc(Cl)cc1` [Compound 97, 5-Chloro-2-(4-chloro-benzenesulfonyl)-3-(4-chloro-phenyl)-thieno[2,3-b]pyridine]: less than 500 nM.
Regarding `O=S(=O)(c1ccc(Cl)cc1)c1sc2ncccc2c1N1CCCC(O)C1` (stereo not drawn) [Compound 98], the inhibition constant (Ki) was less than 500 nM.
The result for `O=S(=O)(c1ccc(Cl)cc1)c1sc2ncccc2c1N1CCC(O)CC1` [Compound 99] reads 500 to 1500 nM; that for `CN(C)c1c(S(=O)(=O)c2ccc(Cl)cc2)sc2ncccc12` [Compound 100], less than 500 nM; that for `COc1ccnc2sc(S(=O)(=O)c3ccc(Cl)cc3)c(-c3ccc(Cl)cc3)c12` [Compound 101, 2-(4-chloro-benzenesulfonyl)-3-(4-chloro-phenyl)-4-methoxy-thieno[2,3-b]pyridine], less than 500 nM.
The result for `O=S(=O)(c1ccc(Cl)cc1)c1sc2nccc(F)c2c1-c1ccc(Cl)cc1` [Compound 102, 4-Fluor-2-(4-chloro-benzenesulfonyl)-3-(4-chloro-phenyl)-thieno[2,3-b]pyridine] reads less than 500 nM.
